Data: patent publication US12115233B2, “Imaging and radiotherapeutics agents targeting fibroblast-activation protein-α (FAP-α)” (The Johns Hopkins University, priority 2017, dated 2024)

Legend:
[1] = test system: FAP+ U-87-MG tumor xenograft; test: Small-animal NIRF imaging, FAP positive xenograft; type: in vivo, NOD/SKID mice
Description: (§1) 1.7 Small-Animal Near Infrared Fluorescence (NIRF) Imaging. NIRF images were acquired on the LI-COR Pearl Impulse Imager using an excitation wavelength of 785 nm and a detection wavelength of 800 nm. Mice utilized for imaging studies were anesthetized with 3% isofluorane (v/v) and maintained at 1.5% isofluorane for the imaging procedure. NOD/SKID mice bearing FAP+ U-87-MG and FAP-PC-3 tumor xenografts were injected with 10 nmol of XY-FAP-01 via tail vein injection and images were acquired at 30 min, 1 h, 2 h, 2.5 h, and 4 h after injection of tracer.
(§2) 1.11 Xenograft Tumor Model. 6-week old female NOD/SCID mice were subcutaneously injected in the upper left and right flanks with 1 million U87(FAP+) cells and PC3 cells (FAP-) in RPMI 1640 media supplemented with 1% FBS. Mice were monitored for tumor size and used for optical or SPECT/CT imaging when the size of tumor reached around 100 mm3.

[2] = test system: FAP-PC-3 tumor xenograft; test: Small-animal NIRF imaging, FAP negative xenograft; type: in vivo, NOD/SKID mice; details: all imaging time points (30 min to 4 h)
Description: as §1, §2

[3] = test system: FAP-negative cell lines (PC3, NCIH226, and HCT116); test: Cellular uptake of XY-FAP-01 in FAP-negative cell lines (fluorescence imaging); type: cell-based, human; details: all concentrations (50 nM to 0.78 nM)
From the text: (§3) 1.5 Cell lines. Six human cancer cell lines were used to assess binding to FAP: glioblastoma (U-87-MG), melanoma (SK-MEL-24), prostate (PC-3), non-small cell lung cancer (NCI-H2228), colorectal carcinoma (HCT 116), and lung squamous cell carcinoma (NCI-H226). From the literature, U-87-MG, SK-MEL-24, and NCI-H2228 cell lines were identified as having high levels of FAP expression [FAP-positive (+)] whereas PC-3, NCI-H226, and HCT 116 cells expressed very low levels of FAP [FAP-negative(−)]. These expression profiles were further confirmed via flow cytometry with an APC-conjugated anti-FAP antibody (R&D Systems, Minneapolis, MN) and quantitative real-time PCR. All cell lines were purchased from American Type Culture Collection (ATCC, Manassas, VA).
1.6 Cellular Uptake Studies. All cellular uptake and specific binding studies were performed in triplicate to ensure reproducibility. Cells were detached using 0.05% trypsin (Corning), resuspended in 1 million cell aliquots in binding buffer, and incubated with various concentrations (range, 50 nM to 0.78 nM) of XY-FAP-01 for 1 hour at 37° C. and 5% CO2. […] Cellular uptake was terminated by washing cells with ice cold PBS (1×) three times. […] Images were analyzed using the LI-COR Pearl Impulse Software (Version 2.0) and fluorescence intensity was corrected for background signal and normalized to well area.

[4] = target: T1, human recombinant FAP (Homo sapiens, UniProt Q12884); test: FAP Inhibition Assay (fluorogenic FAP Assay Kit); type: biochemical; details: DPP substrate, 10 minutes at room temperature, Ki from IC50 by Cheng-Prusoff conversion, read-out: enzyme inhibitory constant (Ki)
T1 construct: purchased BPS Bioscience, San Diego, CA
T1 sequence (Q12884 26-760 limits assumed): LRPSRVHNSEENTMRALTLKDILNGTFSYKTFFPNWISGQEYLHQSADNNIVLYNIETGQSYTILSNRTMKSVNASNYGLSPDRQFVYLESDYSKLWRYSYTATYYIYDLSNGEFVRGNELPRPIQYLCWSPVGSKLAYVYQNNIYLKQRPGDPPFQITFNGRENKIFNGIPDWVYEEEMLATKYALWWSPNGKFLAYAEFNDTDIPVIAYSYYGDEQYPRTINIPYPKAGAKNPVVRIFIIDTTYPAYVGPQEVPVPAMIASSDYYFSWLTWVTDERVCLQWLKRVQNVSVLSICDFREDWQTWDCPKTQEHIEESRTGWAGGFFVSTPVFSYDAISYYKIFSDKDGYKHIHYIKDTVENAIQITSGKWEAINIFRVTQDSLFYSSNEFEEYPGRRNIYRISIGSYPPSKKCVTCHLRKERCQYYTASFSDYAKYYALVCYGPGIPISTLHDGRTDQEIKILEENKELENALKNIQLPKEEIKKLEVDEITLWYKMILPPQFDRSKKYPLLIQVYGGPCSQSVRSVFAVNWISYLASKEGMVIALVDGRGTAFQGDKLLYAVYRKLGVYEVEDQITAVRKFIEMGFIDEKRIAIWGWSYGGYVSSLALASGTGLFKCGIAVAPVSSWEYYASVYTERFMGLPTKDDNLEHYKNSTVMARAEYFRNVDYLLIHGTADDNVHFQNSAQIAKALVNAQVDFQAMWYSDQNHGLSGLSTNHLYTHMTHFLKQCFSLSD
Description: 1.4 FAP Inhibition Assay. The inhibitory activity of XY-FAP-01 was determined using a fluorogenic FAP Assay Kit (BPS Bioscience, San Diego, CA). Briefly, XY-FAP-01, DPP substrate, and human recombinant FAP were loaded into a 96 well plate to initiate the enzyme reaction. The reaction was left for 10 minutes at room temperature before fluorescence was measured with a VICTOR3 V multilabel plate reader (PerkinElmer Inc., Waltham, MA). Data was normalized and semi-log inhibition curves were generated in order to determine the IC50 value (concentration of XY-FAP-01 where the enzyme activity is 50% inhibited) for XY-FAP-01 and subsequent enzyme inhibition constant (Ki) using the Cheng-Prusoff conversion. Generation of semi-log inhibition curves and IC50 values were done using GraphPad Prism (San Diego, CA).

[5] = test system: FAP-positive cell lines (NCIH2228, U87, and SKMEL24); test: Cellular uptake of XY-FAP-01 in FAP-positive cell lines (fluorescence imaging); type: cell-based, human
From the text: as §3
1.6 Cellular Uptake Studies. All cellular uptake and specific binding studies were performed in triplicate to ensure reproducibility. Cells were detached using 0.05% trypsin (Corning), resuspended in 1 million cell aliquots in binding buffer, and incubated with various concentrations (range, 50 nM to 0.78 nM) of XY-FAP-01 for 1 hour at 37° C. and 5% CO2. […] Cellular uptake was terminated by washing cells with ice cold PBS (1×) three times. Cells were resuspended in binding buffer and transferred to a 96-well plate for imaging. Images were acquired on the LI-COR Pearl Impulse Imager (Lincoln, NE) using an excitation wavelength of 785 nm and detection of the emission wavelength at 800 nm. Images were analyzed using the LI-COR Pearl Impulse Software (Version 2.0) and fluorescence intensity was corrected for background signal and normalized to well area.

[6] = Small-animal NIRF imaging, tracer clearance; type: in vivo, NOD/SKID mice; details: after one hour of distribution
Description: as §1, §2

**Q.** Which results are given for `CC1(C)C(=CC=C2CCCC(C=CC3=[N+](CCCCCC(=O)NCCCOc4ccc5nccc(C(=O)NCC(=O)N6CCC[C@H]6C#N)c5c4)c4ccc(S(=O)(=O)[O-])cc4C3(C)C)=C2Oc2ccc(S(=O)(=O)O)cc2)N(CCCCS(=O)(=O)O)c2ccc(S(=O)(=O)O)cc21` [XY-FAP-01]?
**A.** tracer uptake in U-87-MG xenograft (NIRF) ([1]; 10 nmol via tail vein, as early as 30 minutes post injection): specific uptake; tracer uptake in the positive xenograft (NIRF) ([1]; after four hours of distribution): retained; uptake in vivo on FAP-α+ U87 tumor ([1]; summary statement): selective uptake; tracer uptake in the FAP negative tumor (NIRF) [2]: no significant uptake; binding of XY-FAP-01 in FAP-negative cell lines [3]: no significant binding; Ki [4]: 1.26 nM; uptake of XY-FAP-01 in FAP-positive cell lines ([5]; 50 nM to 0.78 nM, 1 hour at 37° C.): concentration dependent uptake; XY-FAP-01 binding when preblocked with a DPP-IV specific inhibitor ([5]; FAP-positive cell lines, 25 nM tracer, preblock with Sitagliptin): did not result in a change of binding ability; concentration at which saturated binding was observed ([5]; FAP-positive cell lines, 1 hour at 37° C.): 25 nM; XY-FAP-01 binding when preblocked with a FAP and DPP-IV specific inhibitor ([5]; FAP-positive cells, 25 nM tracer, preblock with Val-boroPro (Talabostat)): significantly inhibited; uptake in vitro on FAP-α+ U87 cell line ([5]; summary statement): selective uptake; tracer clearance (NIRF) [6]: tracer clearance via the bladder was observed
